{
  "source": "paper PMC8359193",
  "about": "“Summary of reference chemicals evaluated by the fish short‐term reproduction assay, OECD TG229, using Japanese Medaka, Oryzias latipes” (Journal of Applied Toxicology, 2021)",
  "key": {"[1]": {"test_system": "Japanese medaka (Oryzias latipes)", "experiment": "Fish short-term reproduction assay (FSTRA, OECD TG229), 21-day flow-through exposure", "details": "for Fertility rate (%) / Mortality (%) Female / Mortality (%) Male / Number of fertilized eggs / Number of total eggs / SSC Female / SSC Male / VTG (ng/mg of liver) Female / VTG (ng/mg of liver) Male: 21 days; for GSI Female / GSI Male / HSI Female / HSI Male / Length Female / Length Male / Weight Female / Weight Male: at completion of exposure", "how_it_was_run": "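Run to OECD TG229: mature NIES-R medaka pairs (3♂/3♀ per vessel, 4 vessels per treatment plus dilution water control) were dosed by continuous flow-through for 21 days. Test concentrations were spaced 2- to 5-fold. Daily spawned eggs were counted under the microscope for fertilized versus unfertilized.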"}, "[2]": {"test_system": "Japanese medaka", "details": "MMT, ref Flynn et al. (2017), cited from earlier work"}, "[3]": {"test_system": "fathead minnow", "set-up": "method as in US EPA, 2007", "details": "three participating laboratories; ref US EPA, 2007; cited from earlier work"}, "[4]": {"biological_target": "medaka ARβ (mARβ) (Oryzias latipes, UniProt D1MV73)", "sequence (D1MV73 entry or part of it)": "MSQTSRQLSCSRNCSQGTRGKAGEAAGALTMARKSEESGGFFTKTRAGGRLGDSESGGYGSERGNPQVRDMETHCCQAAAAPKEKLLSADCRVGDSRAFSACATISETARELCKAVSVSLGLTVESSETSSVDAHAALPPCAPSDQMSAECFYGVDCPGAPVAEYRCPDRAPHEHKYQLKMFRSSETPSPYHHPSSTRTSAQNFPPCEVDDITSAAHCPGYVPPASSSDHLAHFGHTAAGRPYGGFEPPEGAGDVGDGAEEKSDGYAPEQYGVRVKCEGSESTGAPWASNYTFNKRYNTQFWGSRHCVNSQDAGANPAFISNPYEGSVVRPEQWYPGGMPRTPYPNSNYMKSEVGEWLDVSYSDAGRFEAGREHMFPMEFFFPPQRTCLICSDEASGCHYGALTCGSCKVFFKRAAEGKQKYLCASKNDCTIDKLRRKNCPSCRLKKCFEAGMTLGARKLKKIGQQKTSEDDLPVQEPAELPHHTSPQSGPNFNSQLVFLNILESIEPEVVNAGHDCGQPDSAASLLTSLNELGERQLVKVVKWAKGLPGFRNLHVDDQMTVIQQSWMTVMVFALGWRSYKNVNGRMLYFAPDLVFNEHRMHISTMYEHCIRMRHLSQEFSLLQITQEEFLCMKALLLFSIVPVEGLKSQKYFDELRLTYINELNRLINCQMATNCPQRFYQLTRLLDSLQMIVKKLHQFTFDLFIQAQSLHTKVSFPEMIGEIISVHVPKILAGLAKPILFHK", "experiment": "Medaka ARβ reporter gene assay (RGA), antagonist assay with 50 nM 11KT, HepG2 cells", "assay_type": "cell-based, Japanese medaka (Oryzias latipes)", "details": "50 nM 11KT-induced mARβ activity", "procedure": "To support interpretation of the biological effects observed in the FSTRA studies, in vitro RGAs using medaka Esr1 (mEsr1) and medaka ARβ (mARβ) were performed for the 16 test chemicals. In the present study, Esr1 and ARβ, which are ancestral subtypes among Esrs and ARs in Japanese medaka, were selected based on the phylogenetical analyses of Esr and AR with each receptor RGAs (Ogino et al., [2016], [2018]; Tohyama et al., [2015]).\nThe mARβ RGA in which the agonist and the antagonist assays were performed as same as the mEsr1 RGA was carried out according to the methods previously reported by Lange et al. ([2015]). For the assays, human liver cancer cell line, HepG2, was used as the host cells, and mARβ/pcDNA3.1, MMTV‐Luc, and pRL‐TK‐Rlu were used as mARβ expression vector, reporter vector, and internal control vector, respectively. Other materials and methods, for example, operating procedure, reagents, and incubation conditions, were almost the same as the mEsr1 RGA previously described beside that 11KT (Sigma‐Aldrich, purity 99.0%), a main AR ligand in fish, was competitively spiked at 50 nM into the test medium with test chemicals in antagonist assay. In the agonist and the antagonist assays, 11KT and 2‐hydroxyflutamide (2HFLT; Sigma‐Aldrich, purity 98.5%) were used as positive controls, respectively.\nEffect concentrations, that is, EC50 (a half maximal effective concentration) in the agonist assay and IC50 (a half maximal inhibitory concentration) in the antagonist assay, were estimated by nonlinear curve fitting (e.g., three parameters logistic regression curve) using GraphPad Prism (GraphPad Software Inc., La Jolla, CA, USA)."}},
  "note": "Entries after “also recorded” stand apart in the source; their conditions may differ.",
  "data": [
    {"smiles": "C=CC1(C)OC(=O)N(c2cc(Cl)cc(Cl)c2)C1=O", "note": "(centres unmarked) [VCZ, Vinclozolin]", "values": [
      {"measurement": "effect on fertility rate, in words", "setting": "[1]; 21-day exposure", "result": "significant decrease; also recorded: significant reduction"},
      {"measurement": "Fertility rate (%)", "setting": "[1]; measured conc. 14.5 μg/L", "result": 95, "unit": "%"},
      {"measurement": "Mortality (%) Female", "setting": "[1]; measured conc. 14.5 μg/L", "result": 0, "unit": "%"},
      {"measurement": "Mortality (%) Male", "setting": "[1]; measured conc. 14.5 μg/L", "result": 0, "unit": "%"},
      {"measurement": "Number of fertilized eggs", "setting": "[1]; measured conc. 14.5 μg/L", "result": 22},
      {"measurement": "Number of total eggs", "setting": "[1]; measured conc. 14.5 μg/L", "result": "24 ± 2.6 /female/day"},
      {"measurement": "SSC Female", "setting": "[1]; measured conc. 14.5 μg/L", "result": "0 ± 0"},
      {"measurement": "SSC Male", "setting": "[1]; measured conc. 14.5 μg/L", "result": "108 ± 18"},
      {"measurement": "VTG (ng/mg of liver) Female", "setting": "[1]; measured conc. 14.5 μg/L", "result": "886 ± 300 ng/mg of liver"},
      {"measurement": "VTG (ng/mg of liver) Male", "setting": "[1]; measured conc. 14.5 μg/L", "result": "7.5 ± 7.2 ng/mg of liver"},
      {"measurement": "GSI Female", "setting": "[1]; measured conc. 14.5 μg/L", "result": 11.8, "unit": "%"},
      {"measurement": "GSI Male", "setting": "[1]; measured conc. 14.5 μg/L", "result": 1.09, "unit": "%"},
      {"measurement": "HSI Female", "setting": "[1]; measured conc. 14.5 μg/L", "result": 4.6, "unit": "%"},
      {"measurement": "HSI Male", "setting": "[1]; measured conc. 14.5 μg/L", "result": 1.7, "unit": "%"},
      {"measurement": "Length Female", "setting": "[1]; measured conc. 14.5 μg/L", "result": 35.2, "unit": "mm"},
      {"measurement": "Length Male", "setting": "[1]; measured conc. 14.5 μg/L", "result": 34.8, "unit": "mm"},
      {"measurement": "Weight Female", "setting": "[1]; measured conc. 14.5 μg/L", "result": 447, "unit": "mg"},
      {"measurement": "Weight Male", "setting": "[1]; measured conc. 14.5 μg/L", "result": 455, "unit": "mg"},
      {"measurement": "Fertility rate (%)", "setting": "[1]; measured conc. 43.9 μg/L", "result": 94, "unit": "%"},
      {"measurement": "Mortality (%) Female", "setting": "[1]; measured conc. 43.9 μg/L", "result": 0, "unit": "%"},
      {"measurement": "Mortality (%) Male", "setting": "[1]; measured conc. 43.9 μg/L", "result": 0, "unit": "%"},
      {"measurement": "Number of fertilized eggs", "setting": "[1]; measured conc. 43.9 μg/L", "result": 22},
      {"measurement": "Number of total eggs", "setting": "[1]; measured conc. 43.9 μg/L", "result": "23 ± 5.3 /female/day"},
      {"measurement": "SSC Female", "setting": "[1]; measured conc. 43.9 μg/L", "result": "0 ± 0"},
      {"measurement": "SSC Male", "setting": "[1]; measured conc. 43.9 μg/L", "result": "95 ± 16"},
      {"measurement": "VTG (ng/mg of liver) Female", "setting": "[1]; measured conc. 43.9 μg/L", "result": "816 ± 278 ng/mg of liver"},
      {"measurement": "VTG (ng/mg of liver) Male", "setting": "[1]; measured conc. 43.9 μg/L", "result": "10 ± 12 ng/mg of liver"},
      {"measurement": "GSI Female", "setting": "[1]; measured conc. 43.9 μg/L", "result": 10.7, "unit": "%"},
      {"measurement": "GSI Male", "setting": "[1]; measured conc. 43.9 μg/L", "result": 1.24, "unit": "%"},
      {"measurement": "HSI Female", "setting": "[1]; measured conc. 43.9 μg/L", "result": 4.7, "unit": "%"},
      {"measurement": "HSI Male", "setting": "[1]; measured conc. 43.9 μg/L", "result": 1.7, "unit": "%"},
      {"measurement": "Length Female", "setting": "[1]; measured conc. 43.9 μg/L", "result": 35.0, "unit": "mm"},
      {"measurement": "Length Male", "setting": "[1]; measured conc. 43.9 μg/L", "result": 34.4, "unit": "mm"},
      {"measurement": "Weight Female", "setting": "[1]; measured conc. 43.9 μg/L", "result": 445, "unit": "mg"},
      {"measurement": "Weight Male", "setting": "[1]; measured conc. 43.9 μg/L", "result": 427, "unit": "mg"},
      {"measurement": "Fertility rate (%)", "setting": "[1]; measured conc. 137 μg/L", "result": 90, "unit": "%"},
      {"measurement": "Mortality (%) Female", "setting": "[1]; measured conc. 137 μg/L", "result": 0, "unit": "%"},
      {"measurement": "Mortality (%) Male", "setting": "[1]; measured conc. 137 μg/L", "result": 0, "unit": "%"},
      {"measurement": "Number of fertilized eggs", "setting": "[1]; measured conc. 137 μg/L", "result": 19},
      {"measurement": "Number of total eggs", "setting": "[1]; measured conc. 137 μg/L", "result": "21 ± 4.3 /female/day"},
      {"measurement": "SSC Female", "setting": "[1]; measured conc. 137 μg/L", "result": "0 ± 0"},
      {"measurement": "SSC Male", "setting": "[1]; measured conc. 137 μg/L", "result": "108 ± 16"},
      {"measurement": "VTG (ng/mg of liver) Female", "setting": "[1]; measured conc. 137 μg/L", "result": "651 ± 217 ng/mg of liver"},
      {"measurement": "VTG (ng/mg of liver) Male", "setting": "[1]; measured conc. 137 μg/L", "result": "3.6 ± 2.3 ng/mg of liver"},
      {"measurement": "GSI Female", "setting": "[1]; measured conc. 137 μg/L", "result": 10.6, "unit": "%"},
      {"measurement": "GSI Male", "setting": "[1]; measured conc. 137 μg/L", "result": 1.40, "unit": "%"},
      {"measurement": "HSI Female", "setting": "[1]; measured conc. 137 μg/L", "result": 4.5, "unit": "%"},
      {"measurement": "HSI Male", "setting": "[1]; measured conc. 137 μg/L", "result": 1.5, "unit": "%"},
      {"measurement": "Length Female", "setting": "[1]; measured conc. 137 μg/L", "result": 34.8, "unit": "mm"},
      {"measurement": "Length Male", "setting": "[1]; measured conc. 137 μg/L", "result": 34.4, "unit": "mm"},
      {"measurement": "Weight Female", "setting": "[1]; measured conc. 137 μg/L", "result": 437, "unit": "mg"},
      {"measurement": "Weight Male", "setting": "[1]; measured conc. 137 μg/L", "result": 425, "unit": "mg"},
      {"measurement": "Fertility rate (%)", "setting": "[1]; measured conc. 453 μg/L", "result": 84, "unit": "%"},
      {"measurement": "Mortality (%) Female", "setting": "[1]; measured conc. 453 μg/L", "result": 0, "unit": "%"},
      {"measurement": "Mortality (%) Male", "setting": "[1]; measured conc. 453 μg/L", "result": 0, "unit": "%"},
      {"measurement": "Number of fertilized eggs", "setting": "[1]; measured conc. 453 μg/L", "result": 17},
      {"measurement": "Number of total eggs", "setting": "[1]; measured conc. 453 μg/L", "result": "20 ± 5.9 /female/day"},
      {"measurement": "SSC Female", "setting": "[1]; measured conc. 453 μg/L", "result": "0 ± 0"},
      {"measurement": "SSC Male", "setting": "[1]; measured conc. 453 μg/L", "result": "102 ± 17"},
      {"measurement": "VTG (ng/mg of liver) Female", "setting": "[1]; measured conc. 453 μg/L", "result": "111 ± 92 ng/mg of liver"},
      {"measurement": "VTG (ng/mg of liver) Male", "setting": "[1]; measured conc. 453 μg/L", "result": "3.9 ± 8.6 ng/mg of liver"},
      {"measurement": "GSI Female", "setting": "[1]; measured conc. 453 μg/L", "result": 12.0, "unit": "%"},
      {"measurement": "GSI Male", "setting": "[1]; measured conc. 453 μg/L", "result": 1.46, "unit": "%"},
      {"measurement": "HSI Female", "setting": "[1]; measured conc. 453 μg/L", "result": 4.7, "unit": "%"},
      {"measurement": "HSI Male", "setting": "[1]; measured conc. 453 μg/L", "result": 1.8, "unit": "%"},
      {"measurement": "Length Female", "setting": "[1]; measured conc. 453 μg/L", "result": 34.8, "unit": "mm"},
      {"measurement": "Length Male", "setting": "[1]; measured conc. 453 μg/L", "result": 34.9, "unit": "mm"},
      {"measurement": "Weight Female", "setting": "[1]; measured conc. 453 μg/L", "result": 455, "unit": "mg"},
      {"measurement": "Weight Male", "setting": "[1]; measured conc. 453 μg/L", "result": 455, "unit": "mg"},
      {"measurement": "effect on fecundity (number of total eggs), in words", "setting": "[1]; within the test concentrations, 21-day exposure", "result": "No effect"},
      {"measurement": "LOEC on SSC in females", "setting": "[2]", "result": 33, "unit": "µg/L"},
      {"measurement": "LOEC on reproduction (fecundity and/or fertility)", "setting": "[2]; long-term exposure", "result": 253, "unit": "µg/L"},
      {"measurement": "nominal concentration with significant decrease in nuptial tubercle number in males", "setting": "[3]", "result": 900, "unit": "µg/L"},
      {"measurement": "mARβ antagonist activity (in words)", "setting": "[4]", "result": "inhibited"}
    ]}
  ]
}
